12 compounds from ChEMBL document CHEMBL3044652, “Synthesis of novel 2-alkyl-4-substituted-amino-pyrazolo[3,4-d]pyrimidines as new leads for anti-bacterial and anti-cancer activity” (2013) can be followed below.

Common to all, as to assay type: functional
Assay [1] has as its system G-361. Put plainly: Cytotoxicity against Homo sapiens (human) G361 cells assessed as cell growth at 10^-4 M by SRB assay relative to control. The settings on record: read-out: Activity.
The subject of assay [2] is G-361. Put plainly: Cytotoxicity against Homo sapiens (human) G361 cells assessed as cell growth at 10^-5 M by SRB assay relative to control. The settings on record: read-out: Activity.
Assay [3] relates to Bacillus subtilis. The assay is described as follows: Antibacterial activity against Bacillus subtilis NCIM 2545 at 20 ug/ml after 24 hr by agar diffusion method. The note with it: NCIM 2545, 24 h, read-out: IZ.
Assay [4] has as its system G-361. Put plainly: Cytotoxicity against Homo sapiens (human) G361 cells assessed as cell growth at 10^-6 M by SRB assay relative to control. The note with it: read-out: Activity.
Assay [5] has as its system Escherichia coli. Put plainly: Antibacterial activity against Escherichia coli NCIM 2803 at 20 ug/ml after 24 hr by agar diffusion method. The note with it: NCIM 2803, 24 h, read-out: IZ.
The test system of assay [6] is G-361. The assay is described as follows: Cytotoxicity against Homo sapiens (human) G361 cells assessed as cell growth at 10^-7 M by SRB assay relative to control. The settings on record: read-out: Activity.
Assay [7] has as its system Staphylococcus epidermidis. Put plainly: Antibacterial activity against Staphylococcus epidermidis NCIM 2493 at 20 ug/ml after 24 hr by agar diffusion method. The note with it: NCIM 2493, 24 h, read-out: IZ.
Assay [8] relates to G-361. Put plainly: Cytotoxicity against Homo sapiens (human) G361 cells by SRB assay.
The test system of assay [9] is Staphylococcus aureus. Put plainly: Antibacterial activity against Staphylococcus aureus NCIM 5021 at 20 ug/ml after 24 hr by agar diffusion method. The note with it: NCIM 5021, 24 h, read-out: IZ.
The subject of assay [10] is Staphylococcus aureus. The assay is described as follows: Antibacterial activity against Staphylococcus aureus NCIM 5021 at 10 ug/ml after 24 hr by agar diffusion method. The note with it: NCIM 5021, 24 h, read-out: IZ.
In assay [11] the test system is Escherichia coli. Put plainly: Antibacterial activity against Escherichia coli NCIM 2803 at 10 ug/ml after 24 hr by agar diffusion method. The settings on record: NCIM 2803, 24 h, read-out: IZ.
The test system of assay [12] is Bacillus subtilis. The assay is described as follows: Antibacterial activity against Bacillus subtilis NCIM 2545 at 10 ug/ml after 24 hr by agar diffusion method. The note with it: NCIM 2545, 24 h, read-out: IZ.
The test system of assay [13] is Staphylococcus epidermidis. Put plainly: Antibacterial activity against Staphylococcus epidermidis NCIM 2493 at 10 ug/ml after 24 hr by agar diffusion method. The note with it: NCIM 2493, 24 h, read-out: IZ.

Turning to `c1ccc(-n2ncc3c(NCc4ccco4)ncnc32)cc1`, the growth at 100 µM in the assay on G-361 [1] came out at 51.7%. Also, in the assay with G-361 [2], the growth at 10 µM was found to be 92.3%. The zone of inhibition at 20 µg/mL was 13.6 mm in the assay with Bacillus subtilis [3], 12.8 mm in the assay on Escherichia coli [5], 13.6 mm in [7] and 13 mm in the assay on Staphylococcus aureus [9]. Further, the growth at 1 µM with G-361 [4] came out at 97.5%. Further, in the assay with G-361 [6], the growth at 0.1 µM amounted to 100%. Besides, the GI50 in the assay on G-361 [8] was greater than 100 µM. Besides, the concentration for total growth inhibition (TGI) in the assay with G-361 [8] was greater than 100 µM.

Consider `CCCCNc1ncnc2c1cnn2-c1ccccc1`, for which, in the assay on G-361 [1], the growth at 100 µM is -4.5%. The growth at 10 µM in the assay with G-361 [2] was determined as 43.4%. Also, the zone of inhibition at 20 µg/mL is 13 mm in the assay on Bacillus subtilis [3], 13.6 mm in the assay with Escherichia coli [5], 13.3 mm in [7] and 13.3 mm in the assay on Staphylococcus aureus [9]. Also, the growth at 1 µM in the assay on G-361 [4] turned out to be 90.8%. Further, the growth at 0.1 µM in the assay with G-361 [6] stood at 100%. Besides, in the assay on G-361 [8], the GI50 worked out at 2.1 µM. This compound also gave a 50% lethal concentration (LC50) with G-361 [8] greater than 100 µM. Besides, net growth in the assay on G-361 [8] stopped (TGI) at 37 µM.

For the compound `CCCCNc1nc(C(C)C)nc2c1cnn2-c1ccccc1`, the zone of inhibition at 10 µg/mL came out at 11 mm with Staphylococcus aureus [10], 0 mm in the assay with Escherichia coli [11], 0 mm with Bacillus subtilis [12] and 11 mm in assay [13]. Further, in the assay on G-361 [1], the growth at 100 µM was 45.4%. In the assay with G-361 [2], the growth at 10 µM turned out to be 100%. Moreover, the zone of inhibition at 20 µg/mL in the assay with Bacillus subtilis [3] worked out at 12.8 mm; with Escherichia coli [5], 13.3 mm; in assay [7], 14.1 mm; in the assay with Staphylococcus aureus [9], 14.4 mm. In addition, the growth at 1 µM in the assay on G-361 [4] turned out to be 100%. Moreover, the growth at 0.1 µM in the assay on G-361 [6] amounted to 100%. The same compound yielded a GI50 in the assay with G-361 [8] greater than 100 µM. For the same compound, the 50% lethal concentration (LC50) in the assay on G-361 [8] is greater than 100 µM. In addition, the concentration for total growth inhibition (TGI) in the assay with G-361 [8] is greater than 100 µM.

Turning to `CC(C)c1nc(N2CCOCC2)c2cnn(-c3ccccc3)c2n1`, the zone of inhibition at 10 µg/mL with Staphylococcus aureus [10] was 10.3 mm; in the assay with Escherichia coli [11], 10.6 mm; in the assay with Bacillus subtilis [12], 11.3 mm; in assay [13] it was 11 mm. The growth at 100 µM with G-361 [1] came to 6.9%. For the same compound, the growth at 10 µM in the assay with G-361 [2] worked out at 77.6%. Besides, the zone of inhibition at 20 µg/mL amounted to 14.4 mm in the assay with Bacillus subtilis [3], 14.6 mm in the assay on Escherichia coli [5], 14.3 mm in assay [7] and 14.2 mm in the assay on Staphylococcus aureus [9]. In the assay with G-361 [4], the growth at 1 µM is 92.5%. The growth at 0.1 µM in the assay with G-361 [6] was found to be 100%. In the assay with G-361 [8], this compound registered a GI50 of 2.6 µM. In the assay with G-361 [8], this compound registered an LC50 greater than 100 µM. Besides, in the assay on G-361 [8], the TGI was greater than 100 µM.

Regarding `c1ccc(-n2ncc3c(N4CCOCC4)ncnc32)cc1`, in the assay on G-361 [1], the growth at 100 µM was found to be 61.5%. The growth at 10 µM in the assay on G-361 [2] turned out to be 100%. The zone of inhibition at 20 µg/mL worked out at 12.8 mm with Bacillus subtilis [3], 13.3 mm with Escherichia coli [5], 12.7 mm in assay [7] and 13.6 mm in the assay with Staphylococcus aureus [9]. The growth at 1 µM in the assay on G-361 [4] worked out at 100%. Moreover, in the assay on G-361 [6], the growth at 0.1 µM was found to be 100%. Besides, the concentration for 50% growth inhibition (GI50) with G-361 [8] is greater than 100 µM. The compound also yielded a 50% lethal concentration (LC50) with G-361 [8] greater than 100 µM. In addition, the TGI with G-361 [8] was greater than 100 µM.

As for `CCCNc1nc(C)nc2c1cnn2-c1ccccc1`, the growth at 100 µM in the assay with G-361 [1] came to 25.3%. The growth at 10 µM in the assay on G-361 [2] was found to be 100%. The zone of inhibition at 20 µg/mL with Bacillus subtilis [3] amounted to 13 mm; with Escherichia coli [5], 12.7 mm; in assay [7] it was 13.6 mm; in the assay on Staphylococcus aureus [9], 13.6 mm. Also, the growth at 1 µM with G-361 [4] stood at 100%. Further, in the assay with G-361 [6], the growth at 0.1 µM turned out to be 100%. The same compound registered a GI50 with G-361 [8] of 36 µM. The median lethal concentration (LC50) with G-361 [8] was greater than 100 µM. For the same compound, the total growth inhibition concentration (TGI) in the assay with G-361 [8] was greater than 100 µM.

As to `Cc1nc(NC(C)C)c2cnn(-c3ccccc3)c2n1`, in the assay with G-361 [1], the growth at 100 µM is 13.5%. The growth at 10 µM in the assay with G-361 [2] was found to be 100%. Moreover, the zone of inhibition at 20 µg/mL in the assay on Bacillus subtilis [3] was 13.6 mm; in the assay with Escherichia coli [5] it was 13 mm; in [7] it was 13.7 mm; in the assay with Staphylococcus aureus [9], 13.3 mm. In the assay with G-361 [4], the growth at 1 µM came to 100%. Besides, the growth at 0.1 µM in the assay on G-361 [6] was 100%. The same compound returned a GI50 with G-361 [8] of 32 µM. In the assay with G-361 [8], this compound had an LC50 greater than 100 µM. Also, in the assay on G-361 [8], the TGI was greater than 100 µM.

In the case of `CCCCNc1nc(C)nc2c1cnn2-c1ccccc1`, the zone of inhibition at 10 µg/mL in the assay with Staphylococcus aureus [10] turned out to be 11.3 mm; in the assay with Escherichia coli [11], 11 mm; in the assay with Bacillus subtilis [12], 0 mm; in assay [13] it was 11.1 mm. Further, the growth at 100 µM in the assay with G-361 [1] was -30%. In the assay with G-361 [2], the growth at 10 µM came to 100%. Further, the zone of inhibition at 20 µg/mL came out at 13.8 mm in the assay with Bacillus subtilis [3], 14.4 mm in the assay with Escherichia coli [5], 14.5 mm in assay [7] and 14.6 mm with Staphylococcus aureus [9]. The growth at 1 µM in the assay on G-361 [4] came to 100%. In addition, the growth at 0.1 µM in the assay on G-361 [6] worked out at 100%. In the assay with G-361 [8], this compound had a GI50 of 2.4 µM. In addition, the 50% lethal concentration (LC50) with G-361 [8] is greater than 100 µM. In the assay on G-361 [8], this compound showed a TGI greater than 100 µM.

For `Cc1nc(NCc2ccco2)c2cnn(-c3ccccc3)c2n1`, the growth at 100 µM in the assay with G-361 [1] is 30.1%. In addition, the growth at 10 µM in the assay with G-361 [2] was determined as 100%. The zone of inhibition at 20 µg/mL in the assay on Bacillus subtilis [3] stood at 12.5 mm; with Escherichia coli [5] it was 13.6 mm; in assay [7] it was 13.3 mm; with Staphylococcus aureus [9], 12.7 mm. Also, the growth at 1 µM in the assay on G-361 [4] turned out to be 100%. The growth at 0.1 µM in the assay on G-361 [6] was 100%. This compound showed a GI50 in the assay on G-361 [8] of 39 µM. In addition, the LC50 in the assay with G-361 [8] is greater than 100 µM. In addition, the TGI in the assay on G-361 [8] is greater than 100 µM.

As to `Cc1nc(N2CCOCC2)c2cnn(-c3ccccc3)c2n1`, in the assay with G-361 [1], the growth at 100 µM is 43.9%. In addition, the growth at 10 µM in the assay with G-361 [2] is 99.8%. In addition, the zone of inhibition at 20 µg/mL in the assay on Bacillus subtilis [3] stood at 13.6 mm; with Escherichia coli [5] it was 12.7 mm; in assay [7] it was 13.6 mm; in the assay on Staphylococcus aureus [9], 13.3 mm. In addition, the growth at 1 µM in the assay with G-361 [4] came to 100%. In addition, the growth at 0.1 µM with G-361 [6] was 100%. In the assay on G-361 [8], the 50% growth inhibitory concentration (GI50) is greater than 100 µM. This compound displayed an LC50 with G-361 [8] greater than 100 µM. In addition, in the assay on G-361 [8], the total growth inhibition concentration (TGI) was greater than 100 µM.

For the compound `CCCNc1ncnc2c1cnn2-c1ccccc1`, in the assay with G-361 [1], the growth at 100 µM was 64.8%. Besides, the growth at 10 µM with G-361 [2] was found to be 99.7%. The zone of inhibition at 20 µg/mL with Bacillus subtilis [3] was 13.2 mm; with Escherichia coli [5], 13.2 mm; in assay [7], 13.3 mm; with Staphylococcus aureus [9], 12.7 mm. The growth at 1 µM in the assay on G-361 [4] came to 100%. Besides, the growth at 0.1 µM in the assay with G-361 [6] amounted to 100%. Further, in the assay on G-361 [8], the GI50 was greater than 100 µM. In the assay on G-361 [8], this compound had a median lethal concentration (LC50) greater than 100 µM. Also, the TGI in the assay on G-361 [8] is greater than 100 µM.

For `CC1(C)S[C@@H]2[C@H](NC(=O)[C@H](N)c3ccc(O)cc3)C(=O)N2[C@H]1C(=O)O` [AMOXICILLIN], the zone of inhibition at 10 µg/mL in the assay with Staphylococcus aureus [10] stood at 16.6 mm; in the assay with Escherichia coli [11], 15.5 mm; in the assay with Bacillus subtilis [12], 16.3 mm; in assay [13], 13 mm. Further, the zone of inhibition at 20 µg/mL is 19 mm in the assay on Bacillus subtilis [3], 18.7 mm in the assay with Escherichia coli [5], 16.6 mm in assay [7] and 17.3 mm in the assay on Staphylococcus aureus [9].
